Reference: patent US12161698B2, “Synthetic platelets” (CASE WESTERN RESERVE UNIVERSITY, priority 2011, dated 2024)
No end group written: not given here.

Columns and labels:
[1] = test system: FeCl3-induced carotid artery thrombus; assay: Targeted thrombolysis in vivo (delay of vessel occlusion, FeCl3 carotid thrombosis); parameters: species or system mouse; details: ~400 IU SK where loaded, injected ~5 min after thrombus induction
Description: For targeted thrombolytic capacity assessment, Rhodamine 6G solution was first injected into the right jugular vein of the mouse to render direct fluorescent labeling of circulating platelets and the FeCl3-induced thrombus was created in the carotid as before, such that the formation of the thrombus and extent of vessel occlusion can be observed directly by monitoring the fluorescent platelets in the artery with intra-vital microscopy. For this, the carotid artery was thrombosed as before and […] of Rhodamine 6G solution was injected into the right jugular vein that results in direct fluorescent labeling of circulating platelets. This allows for imaging platelet-rich thrombus formation (and lysis) in real time. […] The effect of these various treatments on delaying the thrombus growth over time was imaged by intravital microscopy, with images recorded for 10 s every minute for the first 10 min and then 10 s every other minute until the end of the experiment. […] The end points of the experiment were: 1) when blood flow had ceased for >30 s due to vessel occlusion, or 2) if occlusion was not observed in 30 min after SK (free or vesicle-encapsulated) administration. […]

[2] = test system: platelet-rich green fluorescent fibrin clot; assay: In vitro thrombolytic capacity in PPFC on platelet-rich fluorescent fibrin clots; type: cell-based; details: flow over clot
Description: Glass microscope slides were incubated with collagen suspension in a circular region for 30 min (similar to slide preparation for PPFC-based binding studies) and then gently washed with 1×PBS. PRP with AlexaFluor 488-conjugated fibrinogen (6% v/v of 1.5 mg/mL, green fluorescent) was briefly mixed with α-thrombin and 0.5 M CaCl2), to final concentrations of 5 nM and […] respectively, to initiate clot formation and the mixture was pipetted (100 μl volume) onto the collagen-coated surface region. The clot was allowed to incubate for 1 h and then gently washed with 1×PBS to remove loosely bound components. The slide thus formed with platelet-rich green fluorescent fibrin clot on its surface, was sealed into the parallel plate flow chamber (PPFC) system, to be imaged under the inverted fluorescence microscope. The objective was focused on an area at the edge of the clot such that the initial field of view enabled observation of the green fluorescence of the fibrin clot throughout the whole area of view, and the clot lysis could then be observed as the loss of this fluorescence. […] In this experimental set-up, sPLA2-triggered degradation of clot-bound PMIN vesicles and resultant SK release was expected to convert the plasminogen to plasmin and thereby lyse the fibrin of the clot.

Row | Substance | activation of platelets by aggregometry (platelets) | delay in vessel occlusion [1] | time to clot lysis (loss of green fluorescence) [2]
1 | TRYLRIHPQSWVHQI-NH2 [VBP] | inability of both VBP and CBP to activate platelets |  | 
2 | streptokinase [free SK] |  | keeps the artery significantly open due to persistent thrombolysis | ≤ 15 min
